Measured values reported in patent publication US20250332173A1, “COMPOUNDS AND METHODS FOR MODULATING NUCLEIC ACID SPLICING” (REMIX THERAPEUTICS INC., priority 2021, published 2025).
Read-outs that look alike come from different tables or passages of the source.

Columns and labels:
MYB mRNA = assay: RT-qPCR splicing assay, MYB canonical junction (CJ) and alternative junction (AJ) mRNA; assay type: cell-based, human; conditions: Homo sapiens; for AC50: increase in MYB alternative junction (AJ) mRNA, read-out: MYB AJ AC50
Method in brief: (§1)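 A673 or K562 cells were treated for 24 h at 37 °C with an 11-point 3-fold compound dilution series (top final concentration 10 uM, DMSO ≤0.25%). After lysis, one-step TaqMan RT-qPCR quantified junction transcripts, normalized to PPIA for A673 or to GAPDH/GUSB for K562.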

HTT mRNA = assay: RT-qPCR splicing assay, HTT canonical junction (CJ) and alternative junction (AJ) mRNA; assay type: cell-based, human; conditions: Homo sapiens; for AC50: increase in HTT alternative junction (AJ) mRNA, read-out: HTT AJ AC50
Method in brief: as §1

SMN2 mRNA = assay: RT-qPCR splicing assay, SMN2 canonical junction (CJ) mRNA; assay type: cell-based, human; conditions: Homo sapiens; canonical junction qPCR panel, Table 5; read-out: SMN2 (decrease in CJ mRNA levels, IC50)
Method in brief: (§2)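 Canonical-junction transcript levels in compound-treated A673 or K562 cells (24 h, up to 10 uM final) were determined from lysates by RT-qPCR with housekeeping-gene normalization.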

[1] = test system: K562 (human chronic myelogenous leukemia) cells; assay: Cell Titer Glo 2.0 cell viability assay; assay type: cell-based; conditions: K562 cells, 72 hours, Cell Titer Glo 2.0, read-out: K562 GI50
Method: Compounds described herein were screened for toxicity in K562 (human chronic myelogenous leukemia) cells using a Cell Titer Glo 2.0 assay.
Cells were plated at 500 cells/well (K562 cells) in 45 μL of IMDM supplemented with 1000 FBS in a 384-well opaque plate. Wells containing only medium were used as a blank control. Test compounds (e.g., compounds ofFormula (I), (II), (III), (IV), (V), (VI), (VII), (VIII), and (IX)) were first serially diluted in DMSO then diluted 1:100 with IMDM+10% FBS. The final concentration of DMSO was 0.1% in each well. The cells were incubated for 72 hours at 37° C. and 500 CO2 before assaying with Cell Titer Glo 2.0 reagent.

Target C = assay: RT-qPCR splicing assay panel, Target C canonical junction (CJ) mRNA; assay type: cell-based, human; conditions: Homo sapiens; canonical junction qPCR panel, Table 5; read-out: Target C (decrease in CJ mRNA levels, IC50)
Method in brief: as §2

[2] = canonical junction qPCR panel, Table 5, read-out: MYB (decrease in CJ mRNA levels, IC50)
[3] = decrease in MYB canonical junction (CJ) mRNA, RT-qPCR, read-out: MYB CJ IC50
[4] = decrease in HTT canonical junction (CJ) mRNA, RT-qPCR, read-out: HTT CJ IC50
[5] = canonical junction qPCR panel, Table 5, read-out: HTT (decrease in CJ mRNA levels, IC50)

IC50 (MYB mRNA; [2])	IC50 (MYB mRNA; [3])	IC50 (HTT mRNA; [4])	IC50 (HTT mRNA; [5])	IC50 (SMN2 mRNA)	GI50 ([1]; Homo sapiens, K562, 72 h)	IC50 (Target C)	GI50 [1]	Compound	AC50 (MYB mRNA; RT-qPCR)	AC50 (HTT mRNA; RT-qPCR)
< 100 nM	< 100 nM	< 100 nM	< 100 nM	< 100 nM	100 to 1000 nM	100 to 1000 nM		Cc1cn2nc(-c3ccc4c(=O)n(C5CCNCC5)ccc4n3)cc(C)c2n1 [Compound 1499, 2-(2,8-dimethylimidazo[1,2-b]pyridazin-6-yl)-6-(4-piperidyl)-1,6-naphthyridin-5-one]	< 100 nM	< 100 nM
100 to 1000 nM	1000 to 10000 nM	1000 to 10000 nM	1000 to 10000 nM	< 100 nM	100 to 1000 nM	1000 to 10000 nM		C[C@@H]1C[C@H](n2ccc3nc(-c4cc5cn(C)nc5cc4O)ncc3c2=O)CCN1 [Compound 1474]	100 to 1000 nM	1000 to 10000 nM
100 to 1000 nM	100 to 1000 nM	100 to 1000 nM	100 to 1000 nM	< 100 nM	100 to 1000 nM	100 to 1000 nM		Cc1cn2nc(-c3ccc4c(=O)n([C@@H]5CCN[C@@H](C6CC6)C5)ncc4n3)cc(C)c2n1 [Compound 1551]	100 to 1000 nM	100 to 1000 nM
100 to 1000 nM	< 100 nM	1000 to 10000 nM	1000 to 10000 nM	< 100 nM	100 to 1000 nM	1000 to 10000 nM		Cc1cn2cc(-c3ncc4c(=O)n([C@@H]5CCN[C@@H](C)C5)ccc4n3)cc(F)c2n1 [Compound 1498, 2-(8-fluoro-2-methyl-imidazo[1,2-a]pyridin-6-yl)-6-[(2S,4R)-2-methyl-4-piperidyl]pyrido[4,3-d]pyrimidin-5-one]	100 to 1000 nM	1000 to 10000 nM
100 to 1000 nM	100 to 1000 nM	100 to 1000 nM	100 to 1000 nM	100 to 1000 nM	100 to 1000 nM	100 to 1000 nM		Cc1cn2cc(-c3ncc4c(=O)n([C@@H]5C[C@@H](C)N[C@@H](C)C5)ccc4n3)cc(F)c2n1 [Compound 1480, 6-[(2R,6S)-2,6-dimethyl-4-piperidyl]-2-(8-fluoro-2-methyl-imidazo[1,2-a]pyridin-6-yl)pyrido[4,3-d]pyrimidin-5-one]	100 to 1000 nM	100 to 1000 nM
100 to 1000 nM	100 to 1000 nM	1000 to 10000 nM	100 to 1000 nM	< 100 nM		1000 to 10000 nM	100 to 1000 nM	Cc1c(O)c(-c2ncc3c(=O)n([C@H]4CC[C@H](N)C4)ccc3n2)cc2cn(C)nc12 [Compound 1521]	100 to 1000 nM	100 to 1000 nM
< 100 nM	< 100 nM	100 to 1000 nM	< 100 nM	< 100 nM	100 to 1000 nM	100 to 1000 nM		Cc1cn2cc(-c3ncc4c(=O)n([C@H]5CCN[C@H](C)C5)ccc4n3)cc(F)c2n1 [Compound 1490, 2-(8-fluoro-2-methyl-imidazo[1,2-a]pyridin-6-yl)-6-[(2R,4S)-2-methyl-4-piperidyl]pyrido[4,3-d]pyrimidin-5-one]	< 100 nM	< 100 nM

More lines, now with the values behind:

Compound	IC50 (MYB mRNA; [2])	IC50 (MYB mRNA; [3])	IC50 (HTT mRNA; [4])	IC50 (HTT mRNA; [5])	IC50 (SMN2 mRNA)	GI50 ([1]; Homo sapiens, K562, 72 h)	IC50 (Target C)	GI50 [1]	AC50 (MYB mRNA; RT-qPCR)	AC50 (HTT mRNA; RT-qPCR)
Cc1c(O)c(-c2ccc3c(=O)n(C45CCC(NC(C)C)(CC4)C5)ccc3n2)cc2cn(C)nc12 [Compound 1526]	< 100 nM	< 100 nM	> 10000 nM	1000 to 10000 nM	< 100 nM	100 to 1000 nM	> 10000 nM		< 100 nM	1000 to 10000 nM
CN1CCN(c2ccc3ncn(-c4cc(F)c5nn(C)cc5c4)c(=O)c3c2)CC1 [Compound 2194]	1000 to 10000 nM	1000 to 10000 nM	1000 to 10000 nM	1000 to 10000 nM	1000 to 10000 nM	1000 to 10000 nM	1000 to 10000 nM		1000 to 10000 nM	1000 to 10000 nM
Cc1c(O)c(-c2ncc3c(=O)n(C45CCC(N(C)C)(CC4)C5)ccc3n2)cc2cn(C)nc12 [Compound 1488]	100 to 1000 nM	100 to 1000 nM	1000 to 10000 nM	100 to 1000 nM	< 100 nM	100 to 1000 nM	1000 to 10000 nM		100 to 1000 nM	100 to 1000 nM
Cc1cn2nc(-c3ccc4c(=O)n(C56CCC(N)(CC5)C6)ccc4n3)cc(C)c2n1 [Compound 1504, 6-(4-aminonorbornane-1-yl)-2-(2,8-dimethylimidazo[1,2-b]pyridazin-6-yl)-1,6-naphthyridin-5-one]	< 100 nM	< 100 nM	1000 to 10000 nM	100 to 1000 nM	< 100 nM	100 to 1000 nM	1000 to 10000 nM		< 100 nM	100 to 1000 nM
Cc1c(O)c(-c2ccc3c(=O)n([C@H]4CC[C@H](N(C)C)CC4)ccc3n2)cc2cn(C)nc12 [Compound 1484, 6-[4-(dimethylamino)cyclohexyl]-2-(6-hydroxy-2,7-dimethyl-indazol-5-yl)-1,6-naphthyridin-5-one]	< 100 nM	< 100 nM	100 to 1000 nM	< 100 nM	< 100 nM	< 100 nM	100 to 1000 nM		< 100 nM	< 100 nM
Cn1cc2cc(-c3ncc4c(=O)n(C56CCC(N)(CC5)C6)ccc4n3)cc(F)c2n1 [Compound 1489, 6-(4-aminonorbornane-1-yl)-2-(7-fluoro-2-methyl-indazol-5-yl)pyrido[4,3-d]pyrimidin-5-one]	100 to 1000 nM	100 to 1000 nM	1000 to 10000 nM	1000 to 10000 nM	< 100 nM	100 to 1000 nM	1000 to 10000 nM		100 to 1000 nM	1000 to 10000 nM
Cc1c(O)c(-c2ccc3c(=O)n([C@H]4CC[C@@H](N(C)C)CC4)ccc3n2)cc2cn(C)nc12 [Compound 1485, 6-[4-(dimethylamino)cyclohexyl]-2-(6-hydroxy-2,7-dimethyl-indazol-5-yl)-1,6-naphthyridin-5-one]	100 to 1000 nM	100 to 1000 nM	100 to 1000 nM	100 to 1000 nM	< 100 nM	100 to 1000 nM	100 to 1000 nM		100 to 1000 nM	100 to 1000 nM
